These results are taken from the RepoRT retention time repository.

The data set is described as follows: HILIC, Waters ACQUITY UPLC BEH Amide, 100 × 2.1 mm, 1.7 µm; A: water + 0.125% formic acid + 10 mM ammonium formate; B: 5% water + 95% acetonitrile + 0.125% formic acid + 10 mM ammonium formate; gradient (min/%B) 0/100 2/100 7.7/70 9.5/40 10.25/30 12.75/100 17/100. Particulars: stereoisomer not certain.
With `Cc1ccnc2c1NC(=O)c1cccnc1N2C1CC1` [Viramune], the LC retention time worked out at 1.16 min.
`CNS(=O)(=O)Cc1ccc2[nH]cc(CCN(C)C)c2c1` [Sumatriptan]: the LC retention time was determined as 4.31 min.
Regarding `COc1ccc2nc(S(=O)Cc3ncc(C)c(OC)c3C)[nH]c2c1` (centres undefined) [Omeprazole], the LC retention time turned out to be 1.35 min.
Take `O=C(O)CCCCCCCCCCCCCCCCC(=O)O` [Octadecanedioic acid]: the LC retention time came out at 1.24 min.
Take `CC(=O)OC(CC(=O)[O-])C[N+](C)(C)C` (centres undefined) [Acetylcarnitine]: the LC retention time was found to be 7.19 min.
Consider `COc1ccc(-c2cc(=O)c3c(OC)c(OC)c(OC)c(OC)c3o2)cc1OC` [Nobiletin], for which the LC retention time was 1 min.
Take `NC(CC(=O)O)C(=O)NC(Cc1ccccc1)C(=O)O` (centres undefined) [Asp-Phe]: the LC retention time worked out at 8.14 min.
With `O=C1CCC(C(=O)O)N1` (centres undefined) [Pyroglutamic acid], the LC retention time worked out at 8.71 min.
`Fc1ccc(C2CCNCC2COc2ccc3c(c2)OCO3)cc1` (centres undefined) [Paroxetine]: the LC retention time is 3.08 min.
Consider `CC(C)C(N)C(=O)O` (centres undefined) [Valine], for which the LC retention time is 7.24 min.
Consider `CNC(Cc1ccc(O)cc1)C(=O)O` (centres undefined) [N-Methyltyrosine], for which the LC retention time was 6.79 min.
Take `Nc1c2c(nc3c1CCC3)CCCC2` [Ipidacrine]: the LC retention time came out at 3.33 min.
Next, `COC1C(CO)OC(n2ccc(N)nc2=O)C1O` (centres undefined) [3'-O-Methylcytidine]: 5.09 min.
On to `CNC(CC(=O)O)C(=O)O` (centres undefined) [N-Methylaspartic acid], for which the LC retention time amounted to 2.53 min.
Take `CC(Oc1c(Cl)cccc1Cl)C1=NCCN1` (centres undefined) [Lofexidine]: the LC retention time is 2.65 min.
On to `CC(=O)NC(CCCN=C(N)N)C(=O)O` [N-.alpha.-Acetyl-L-arginine], for which the LC retention time came out at 8.16 min.
With `O=CCc1ccccc1` [Phenylacetaldehyde], the LC retention time was found to be 5.4 min.
On to `COc1cc(CNC(=O)CCCCC=CC(C)C)ccc1O` [Capsaicin], for which the LC retention time stood at 1 min.
Next, `CCN1CCCC1CNC(=O)c1cc(S(=O)(=O)CC)c(N)cc1OC` (centres undefined) [Amisulpride]: 2.76 min.
On to `c1ccc(Cn2ccnc2)cc1` [1-Benzylimidazole], for which the LC retention time amounted to 1.63 min.
Consider `OCC1OC(OC2C(O)OC(CO)C(O)C2O)C(O)C(O)C1O` (stereo not drawn) [2-alpha-Mannobiose], for which the LC retention time worked out at 9.47 min.
Regarding `NC1CCN(c2nc3c(cc2F)c(=O)c(C(=O)O)cn3-c2ccc(F)cc2F)C1` (centres undefined) [Tosufloxacin], the LC retention time was found to be 4.87 min.
For the compound `NC(CCC(=O)O)C(=O)NC(Cc1ccccc1)C(=O)O` (centres undefined) [Glu-Phe], the LC retention time was determined as 8.2 min.
Regarding `Cc1ncc([N+](=O)[O-])n1CC(C)O` (centres undefined) [Secnidazole], the LC retention time amounted to 1.12 min.
For the compound `CC(C)(C)NC(=O)C1CC2CCCCC2CN1CC(O)C(Cc1ccccc1)NC(=O)C(CC(N)=O)NC(=O)c1ccc2ccccc2n1` (centres undefined) [Saquinavir], the LC retention time amounted to 2.85 min.
Consider `O=C(O)CCCCCCC(O)CC(=O)O` (centres undefined) [3-Hydroxysebacic acid], for which the LC retention time stood at 2.55 min.
Next, `N=C1NC(=O)C(c2ccccc2)O1` (centres undefined) [Pemoline]: 1.39 min; `CC(=O)Nc1ccccc1` [Acetanilide]: 1.11 min; `O=C(O)CCCCC1SCC2NC(=O)NC21` (centres undefined) [Biotin]: 2.85 min.
Turning to `NC(=O)N1c2ccccc2CC(=O)c2ccccc21` [Trileptal], the LC retention time stood at 1.13 min.
Turning to `Nc1ccnc(=O)[nH]1` [Cytosine], the LC retention time came to 5.9 min.
Consider `OCCN1CCN(CCCN2c3ccccc3Sc3ccc(C(F)(F)F)cc32)CC1` [Fluphenazine], for which the LC retention time turned out to be 2.74 min.
As to `CC(N)C(=O)O` (centres undefined) [Alanine], the LC retention time came to 8.05 min.
Consider `CC(C)CC(O)C(=O)O` (centres undefined) [2-Hydroxy-4-methylpentanoic acid], for which the LC retention time came to 1.57 min.
On to `COc1c(N2CC3CCCNC3C2)c(F)cc2c(=O)c(C(=O)O)cn(C3CC3)c12` (centres undefined) [Moxifloxacin], for which the LC retention time was found to be 4.69 min.
On to `CNCCCCOc1ccccc1Cc1ccccc1` [Bifemelane], for which the LC retention time is 2.46 min.
With `CCN1CCN(c2cc3c(cc2F)c(=O)c(C(=O)O)cn3C2CC2)CC1` [Enrofloxacin], the LC retention time came out at 3.31 min.
On to `OCC1OCC(O)C(O)C1O` (centres undefined) [1,5-Anhydrosorbitol], for which the LC retention time is 0.92 min.
Consider `CN1C2CCC1CC(OC(=O)C(CO)c1ccccc1)C2` (centres undefined) [Atropine], for which the LC retention time was determined as 4.32 min.
For `CN(C)C(N)=NCCCC(N)C(=O)O` (centres undefined) [ADMA], the LC retention time was found to be 8.55 min.
Regarding `Nc1c(O)cccc1C(=O)CC(N)C(=O)O` (centres undefined) [3-Hydroxykynurenine], the LC retention time stood at 7.35 min.
Take `CN1CCC(c2ccc(F)cc2)C(COc2ccc3c(c2)OCO3)C1` (centres undefined) [N-Methylparoxetine]: the LC retention time turned out to be 2.2 min.
On to `Nc1ccccc1C(=O)CC(N)C(=O)O` (centres undefined) [Kynurenine], for which the LC retention time worked out at 6.98 min.
In the case of `CC1COc2c(C3(N)CC3)c(F)cc3c(=O)c(C(=O)O)cn1c23` (centres undefined) [Pazufloxacin], the LC retention time is 2.49 min.
Turning to `CC(=O)Nc1ccc2c(c1)Cc1ccccc1-2` [N-2-Fluorenylacetamide], the LC retention time was determined as 4.74 min.
Regarding `NC(C(=O)NC1C(=O)N2C(C(=O)O)=C(Cl)CSC12)c1ccccc1` (centres undefined) [Cefaclor], the LC retention time was 5.61 min.
Turning to `CCCCCCCCCCCCCCCC(O)C(N)CO` (centres undefined) [Dihydrosphingosine], the LC retention time was 4.47 min.
On to `Cc1onc(-c2ccccc2)c1-c1ccc(S(N)(=O)=O)cc1` [Valdecoxib], for which the LC retention time was 1.01 min.
On to `O=C(O)CNC(=O)c1ccc(O)cc1` [4-Hydroxyhippuric acid], for which the LC retention time was found to be 5.86 min.
`CC(=O)N1CCN(c2ccc(OCC3COC(Cn4ccnc4)(c4ccc(Cl)cc4Cl)O3)cc2)CC1` (centres undefined) [Ketoconazole]: the LC retention time was 1.73 min.
In the case of `NC(CO)C(=O)NC(Cc1ccc(O)cc1)C(=O)O` (centres undefined) [Ser-Tyr], the LC retention time stood at 8.44 min.
For `CNC(=O)Oc1ccc2c(c1)C1(C)CCN(C)C1N2C` (centres undefined) [Physostigmine], the LC retention time is 3.17 min.
`CC(NC(CCc1ccccc1)C(=O)O)C(=O)N1CCCC1C(=O)O` (centres undefined) [Enalaprilat]: the LC retention time turned out to be 7.07 min.
With `O=C(O)c1cccnc1` [Nicotinic acid], the LC retention time was 4.01 min.
With `CC(C)C12OC1C1OC13C1(C)CCC4=C(COC4=O)C1CC1OC13C2O` (centres undefined) [Triptolide], the LC retention time was 1.02 min.
Turning to `COC(=O)C1=COC(OC2OC(CO)C(O)C(O)C2O)C2C(CO)=CCC12` (centres undefined) [Geniposide], the LC retention time was determined as 4.53 min.
Take `NCCCC(=O)O` [gamma-Aminobutyric Acid]: the LC retention time was determined as 7.86 min.
On to `CNC(C)Cc1ccccc1` (centres undefined) [Methamphetamine], for which the LC retention time worked out at 3.33 min.
In the case of `CC(=O)OC1CC(C)(C)C(=C=CC(C)=CC=CC(C)=CC=CC=C(C)C=CC=C(C)C(=O)CC23OC2(C)CC(O)CC3(C)C)C(C)(O)C1` (centres undefined) [Fucoxanthin], the LC retention time worked out at 1.07 min.
Regarding `CC(C)C(=O)NCC(=O)O` [N-Isobutyrylglycine], the LC retention time is 3.6 min.
For the compound `CCNC(=O)CCC(N)C(=O)O` (centres undefined) [Theanine], the LC retention time amounted to 7.66 min.
Regarding `CCCCCCCCCCCCCCC(O)C(O)C(N)CO` (centres undefined) [Phytosphingosine], the LC retention time worked out at 5.18 min.
As to `NC(CCC(=O)NC(CS)C(=O)O)C(=O)O` (centres undefined) [gamma-Glutamyl-cysteine], the LC retention time amounted to 8.98 min.
Regarding `CCC(=O)OC(Cc1ccccc1)(c1ccccc1)C(C)CN(C)C` (centres undefined) [Propoxyphene], the LC retention time is 2.01 min.
Next, `NC(=O)NCCCC[C@H](N)C(=O)O` [L-Homocitrulline]: 8.73 min; `Cc1ccc(C(C)C)c(O)c1` [Thymol]: 1.53 min; `COc1cc2nc(N3CCN(C(=O)c4ccco4)CC3)nc(N)c2cc1OC` [Prazosin]: 3.75 min.
As to `COC1C(CO)OC(n2ccc(=O)[nH]c2=O)C1O` (centres undefined) [3'-O-Methyluridine], the LC retention time was determined as 2.42 min.
As for `CC12CCC(=O)C=C1CCC1C2C(O)CC2(C)C(C(=O)CO)CCC12` (centres undefined) [Corticosterone], the LC retention time was 1.25 min.
On to `O=C(CCCN1CC=C(n2c(=O)[nH]c3ccccc32)CC1)c1ccc(F)cc1` [Droperidol], for which the LC retention time was found to be 3.48 min.
Take `CCCCCC(O)C=CC=O` (centres undefined) [4-Hydroxynonenal]: the LC retention time came to 1.07 min.
`CC(=O)NC(C)C(=O)O` (centres undefined) [N-Acetylalanine]: the LC retention time came to 4.83 min.
Take `NC(CSCC(=O)O)C(=O)O` (centres undefined) [Carbocysteine]: the LC retention time was 9.04 min.
Consider `Cn1c(=N)ccn(C2OC(CO)C(O)C2O)c1=O` (centres undefined) [3-Methylcytidine], for which the LC retention time amounted to 6.99 min.
For `CC(OP(=O)(O)O)C(N)C(=O)O` (centres undefined) [o-Phosphothreonine], the LC retention time amounted to 9.74 min.
Under `CC(=O)NC(CC(=O)O)C(=O)NC(CCC(=O)O)C(=O)O` (centres undefined) [N-Acetyl-Asp-Glu] stands 8.11 min.
`CN(CC=CC#CC(C)(C)C)Cc1cccc2ccccc12` [Terbinafine]: the LC retention time stood at 1.33 min.
Next, `CC1=NS(=O)(=O)c2cc(Cl)ccc2N1` [Diazoxide]: 1.09 min.
On to `Cc1ccc(-c2nc3ccc(C)cn3c2CC(=O)N(C)C)cc1` [Zolpidem], for which the LC retention time came out at 1.62 min.
Take `CCCCCCCCCC=O` [Decanal]: the LC retention time is 2.17 min.
In the case of `CC(=O)NC1C(O)OC(CO)C(O)C1O` (centres undefined) [N-Acetylmannosamine], the LC retention time amounted to 7.01 min.
For `O=C(O)CCC(=O)O` [Succinic acid], the LC retention time was 4.46 min.
Next, `CN1C(=O)CCC1c1ccc[n+]([O-])c1` [(S)-Cotinine N-oxide]: 3.87 min; `CC12CCC3C(CCC4CC(O)CCC43C)C1CCC2=O` (centres undefined) [Androsterone]: 4.62 min.
